Measurements published in ChEMBL document CHEMBL5518248, “Design, Synthesis, and Biological Evaluation of Novel Arylomycins against Multidrug-Resistant Gram-Negative Bacteria” (J Med Chem, 2024).

Experiments:
Type in all cases: functional
Settings in all cases: time 18-20 hrs
Escherichia coli [1] = assay: Antibacterial activity against Escherichia coli ATCC 35218 assessed as inhibition of bacterial growth measured after 18 to 20 hrs by broth microdilution method
Escherichia coli [2] = assay: Antibacterial activity against Escherichia coli 14-2 assessed as inhibition of bacterial growth measured after 18 to 20 hrs by broth microdilution method
Escherichia coli [3] = assay: Antibacterial activity against Escherichia coli 14-4 assessed as inhibition of bacterial growth measured after 18 to 20 hrs by broth microdilution method
Klebsiella pneumoniae [4] = assay: Antibacterial activity against Klebsiella pneumoniae 15-1 assessed as inhibition of bacterial growth measured after 18 to 20 hrs by broth microdilution method
Klebsiella pneumoniae [5] = assay: Antibacterial activity against Klebsiella pneumoniae 15-4 assessed as inhibition of bacterial growth measured after 18 to 20 hrs by broth microdilution method
Klebsiella pneumoniae [6] = assay: Antibacterial activity against Klebsiella pneumoniae 15-5 assessed as inhibition of bacterial growth measured after 18 to 20 hrs by broth microdilution method
Acinetobacter baumannii [7] = assay: Antibacterial activity against Acinetobacter baumannii 17-2 assessed as inhibition of bacterial growth measured after 18 to 20 hrs by broth microdilution method
Acinetobacter baumannii [8] = assay: Antibacterial activity against Acinetobacter baumannii 17-8 assessed as inhibition of bacterial growth measured after 18 to 20 hrs by broth microdilution method
Pseudomonas aeruginosa [9] = assay: Antibacterial activity against Pseudomonas aeruginosa 17-1 assessed as inhibition of bacterial growth measured after 18 to 20 hrs by broth microdilution method
Pseudomonas aeruginosa [10] = assay: Antibacterial activity against Pseudomonas aeruginosa 19-5 assessed as inhibition of bacterial growth measured after 18 to 20 hrs by broth microdilution method

SMILES	MIC (Escherichia coli [1])	MIC (Escherichia coli [2])	MIC (Escherichia coli [3])	MIC (Klebsiella pneumoniae [4])	MIC (Klebsiella pneumoniae [5])	MIC (Klebsiella pneumoniae [6])	MIC (Acinetobacter baumannii [7])	MIC (Acinetobacter baumannii [8])	MIC (Pseudomonas aeruginosa [9])	MIC (Pseudomonas aeruginosa [10])
Cc1cc(-c2ncc(C(=O)N[C@@H](CCN)C(=O)N(C)[C@@H]3C(=O)N[C@@H](C)C(=O)N[C@H](C(=O)NCC#N)Cc4ccc(OCCN)c(c4)-c4cc3ccc4OCCN)c(C)n2)ccc1CSSC(C)(C)C.O=C(O)C(F)(F)F.O=C(O)C(F)(F)F.O=C(O)C(F)(F)F.O=C(O)C(F)(F)F	≤ 0.03 µg/mL	0.125 µg/mL	0.06 µg/mL	0.125 µg/mL	0.25 µg/mL	0.25 µg/mL	1 µg/mL	1 µg/mL	4 µg/mL	4 µg/mL
C=CC(=O)N[C@@H]1Cc2ccc(OCCN)c(c2)-c2cc(ccc2OCCN)[C@H](N(C)C(=O)[C@H](CCN)NC(=O)c2cnc(-c3ccc(C(C)(C)C)cc3)nc2C)C(=O)N[C@@H](C)C(=O)N1.O=C(O)C(F)(F)F.O=C(O)C(F)(F)F.O=C(O)C(F)(F)F.O=C(O)C(F)(F)F	64 µg/mL	64 µg/mL	64 µg/mL	32 µg/mL	64 µg/mL	32 µg/mL	> 64 µg/mL	64 µg/mL	> 64 µg/mL	> 64 µg/mL
Cc1nc(C2=CCC3(CC2)CC3)ncc1C(=O)N[C@@H](CCN)C(=O)N(C)[C@@H]1C(=O)N[C@@H](C)C(=O)N[C@H](C(=O)NCC#N)Cc2ccc(OCCN)c(c2)-c2cc1ccc2OCCN.O=C(O)C(F)(F)F.O=C(O)C(F)(F)F.O=C(O)C(F)(F)F.O=C(O)C(F)(F)F	0.125 µg/mL	0.25 µg/mL	0.25 µg/mL	0.25 µg/mL	0.25 µg/mL	1 µg/mL	16 µg/mL	4 µg/mL	> 64 µg/mL	> 64 µg/mL
Cc1nc(-c2ccc(CSSC(C)(C)C)cc2)ccc1C(=O)N[C@@H](CCN)C(=O)N(C)[C@@H]1C(=O)N[C@@H](C)C(=O)N[C@H](C(=O)NCC#N)Cc2ccc(OCCN)c(c2)-c2cc1ccc2OCCN.O=C(O)C(F)(F)F.O=C(O)C(F)(F)F.O=C(O)C(F)(F)F.O=C(O)C(F)(F)F	≤ 0.03 µg/mL	0.25 µg/mL	0.125 µg/mL	0.125 µg/mL	0.125 µg/mL	0.06 µg/mL	1 µg/mL	1 µg/mL	8 µg/mL	8 µg/mL
CSSC1(c2ccc(-c3ncc(C(=O)N[C@@H](CCN)C(=O)N(C)[C@@H]4C(=O)N[C@@H](C)C(=O)N[C@H](C(=O)NCC#N)Cc5ccc(OCCN)c(c5)-c5cc4ccc5OCCN)c(C)n3)cc2)CCC1.O=C(O)C(F)(F)F.O=C(O)C(F)(F)F.O=C(O)C(F)(F)F.O=C(O)C(F)(F)F	≤ 0.03 µg/mL	0.125 µg/mL	0.06 µg/mL	0.06 µg/mL	0.125 µg/mL	0.125 µg/mL	0.5 µg/mL	0.25 µg/mL	16 µg/mL	2 µg/mL
Cc1nc(-c2ccc(C(C)(C)C)cc2)ncc1C(=O)N[C@@H](CCN)C(=O)N(C)[C@@H]1C(=O)N[C@@H](C)C(=O)N[C@H](C(=O)OCC=O)Cc2ccc(OCCN)c(c2)-c2cc1ccc2OCCN.Cl.Cl.Cl.Cl	≤ 0.03 µg/mL	0.06 µg/mL	0.125 µg/mL	≤ 0.03 µg/mL	0.06 µg/mL	≤ 0.03 µg/mL	8 µg/mL	2 µg/mL	> 64 µg/mL	> 64 µg/mL
CSCCSSCc1ccc(-c2ncc(C(=O)N[C@@H](CCN)C(=O)N(C)[C@@H]3C(=O)N[C@@H](C)C(=O)N[C@H](C(=O)NCC#N)Cc4ccc(OCCN)c(c4)-c4cc3ccc4OCCN)c(C)n2)cc1.O=C(O)C(F)(F)F.O=C(O)C(F)(F)F.O=C(O)C(F)(F)F.O=C(O)C(F)(F)F	0.125 µg/mL	0.25 µg/mL	0.25 µg/mL	0.5 µg/mL	0.5 µg/mL	0.25 µg/mL	2 µg/mL	1 µg/mL	32 µg/mL	16 µg/mL
Cc1nc(-c2ccc(CSSC(C)(C)C)c(F)c2)ncc1C(=O)N[C@@H](CCN)C(=O)N(C)[C@@H]1C(=O)N[C@@H](C)C(=O)N[C@H](C(=O)NCC#N)Cc2ccc(OCCN)c(c2)-c2cc1ccc2OCCN.O=C(O)C(F)(F)F.O=C(O)C(F)(F)F.O=C(O)C(F)(F)F.O=C(O)C(F)(F)F	0.06 µg/mL	0.125 µg/mL	0.125 µg/mL	0.25 µg/mL	0.25 µg/mL	0.25 µg/mL	1 µg/mL	1 µg/mL	4 µg/mL	4 µg/mL

Results, then the molecule that gave them:

MIC (Escherichia coli [1])	MIC (Escherichia coli [2])	MIC (Escherichia coli [3])	MIC (Klebsiella pneumoniae [4])	MIC (Klebsiella pneumoniae [5])	MIC (Klebsiella pneumoniae [6])	MIC (Acinetobacter baumannii [7])	MIC (Acinetobacter baumannii [8])	MIC (Pseudomonas aeruginosa [9])	MIC (Pseudomonas aeruginosa [10])	SMILES
0.06 µg/mL	0.125 µg/mL	0.25 µg/mL	0.125 µg/mL	0.25 µg/mL	0.25 µg/mL	8 µg/mL	4 µg/mL	> 64 µg/mL	> 64 µg/mL	Cc1nc(-c2ccc(C(C)(C)C)cc2)ncc1C(=O)N[C@@H](CCN)C(=O)N(C)[C@@H]1C(=O)N[C@@H](C)C(=O)N[C@H](C(=O)OCC#N)Cc2ccc(OCCN)c(c2)-c2cc1ccc2OCCN.O=C(O)C(F)(F)F.O=C(O)C(F)(F)F.O=C(O)C(F)(F)F.O=C(O)C(F)(F)F
0.06 µg/mL	0.25 µg/mL	0.5 µg/mL	0.25 µg/mL	0.5 µg/mL	0.5 µg/mL	4 µg/mL	1 µg/mL	64 µg/mL	64 µg/mL	CSSCc1ccc(-c2ncc(C(=O)N[C@@H](CCN)C(=O)N(C)[C@@H]3C(=O)N[C@@H](C)C(=O)N[C@H](C(=O)NCC#N)Cc4ccc(OCCN)c(c4)-c4cc3ccc4OCCN)c(C)n2)cc1.O=C(O)C(F)(F)F.O=C(O)C(F)(F)F.O=C(O)C(F)(F)F.O=C(O)C(F)(F)F
≤ 0.03 µg/mL	≤ 0.03 µg/mL	≤ 0.03 µg/mL	0.125 µg/mL	0.125 µg/mL	0.125 µg/mL	0.25 µg/mL	0.25 µg/mL	4 µg/mL	1 µg/mL	Cc1nc(-c2ccc([C@H](C)SSC(C)(C)C)cc2)ncc1C(=O)N[C@@H](CCN)C(=O)N(C)[C@@H]1C(=O)N[C@@H](C)C(=O)N[C@H](C(=O)NCC#N)Cc2ccc(OCCN)c(c2)-c2cc1ccc2OCCN.O=C(O)C(F)(F)F.O=C(O)C(F)(F)F.O=C(O)C(F)(F)F.O=C(O)C(F)(F)F
0.5 µg/mL	4 µg/mL	2 µg/mL	16 µg/mL	32 µg/mL	16 µg/mL	8 µg/mL	2 µg/mL	64 µg/mL	> 64 µg/mL	Cc1nc(-c2ccc(C(C)(C)C)cc2)ncc1CN[C@@H](CCN)C(=O)N(C)[C@@H]1C(=O)N[C@@H](C)C(=O)N[C@H](C(=O)NCC#N)Cc2ccc(OCCN)c(c2)-c2cc1ccc2OCCN.O=C(O)C(F)(F)F.O=C(O)C(F)(F)F.O=C(O)C(F)(F)F.O=C(O)C(F)(F)F
≤ 0.03 µg/mL	≤ 0.03 µg/mL	≤ 0.03 µg/mL	0.125 µg/mL	0.25 µg/mL	0.25 µg/mL	1 µg/mL	0.5 µg/mL	4 µg/mL	4 µg/mL	Cc1nc(-c2ccc(C(C)(C)SSC(C)(C)C)cc2)ncc1C(=O)N[C@@H](CCN)C(=O)N(C)[C@@H]1C(=O)N[C@@H](C)C(=O)N[C@H](C(=O)NCC#N)Cc2ccc(OCCN)c(c2)-c2cc1ccc2OCCN.O=C(O)C(F)(F)F.O=C(O)C(F)(F)F.O=C(O)C(F)(F)F.O=C(O)C(F)(F)F
2 µg/mL	2 µg/mL	2 µg/mL	8 µg/mL	16 µg/mL	8 µg/mL	4 µg/mL	1 µg/mL	32 µg/mL	64 µg/mL	Cc1nc(-c2ccc(C(C)(C)C)cc2)ncc1C(=O)C(=O)N[C@@H](CCN)C(=O)N(C)[C@@H]1C(=O)N[C@@H](C)C(=O)N[C@H](C(=O)NCC#N)Cc2ccc(OCCN)c(c2)-c2cc1ccc2OCCN.O=C(O)C(F)(F)F.O=C(O)C(F)(F)F.O=C(O)C(F)(F)F.O=C(O)C(F)(F)F
≤ 0.03 µg/mL	0.06 µg/mL	≤ 0.03 µg/mL	0.06 µg/mL	0.06 µg/mL	0.06 µg/mL	0.5 µg/mL	0.25 µg/mL	4 µg/mL	4 µg/mL	Cc1nc(-c2ccc(SSC(C)C)cc2)ncc1C(=O)N[C@@H](CCN)C(=O)N(C)[C@@H]1C(=O)N[C@@H](C)C(=O)N[C@H](C(=O)NCC#N)Cc2ccc(OCCN)c(c2)-c2cc1ccc2OCCN.O=C(O)C(F)(F)F.O=C(O)C(F)(F)F.O=C(O)C(F)(F)F.O=C(O)C(F)(F)F
≤ 0.03 µg/mL	0.06 µg/mL	≤ 0.03 µg/mL	0.06 µg/mL	0.125 µg/mL	0.125 µg/mL	1 µg/mL	0.5 µg/mL	8 µg/mL	16 µg/mL	CCSSCc1ccc(-c2ncc(C(=O)N[C@@H](CCN)C(=O)N(C)[C@@H]3C(=O)N[C@@H](C)C(=O)N[C@H](C(=O)NCC#N)Cc4ccc(OCCN)c(c4)-c4cc3ccc4OCCN)c(C)n2)cc1.O=C(O)C(F)(F)F.O=C(O)C(F)(F)F.O=C(O)C(F)(F)F.O=C(O)C(F)(F)F
4 µg/mL	8 µg/mL	8 µg/mL	16 µg/mL	16 µg/mL	16 µg/mL	16 µg/mL	16 µg/mL	> 64 µg/mL	> 64 µg/mL	Cc1nc(-c2ccc(C(C)(C)C)cc2)ncc1C(=O)N[C@@H](CCN)C(=O)N(C)[C@@H]1C(=O)N[C@@H](C)C(=O)N[C@H](C(=O)CC#N)Cc2ccc(OCCN)c(c2)-c2cc1ccc2OCCN.O=C(O)C(F)(F)F.O=C(O)C(F)(F)F.O=C(O)C(F)(F)F.O=C(O)C(F)(F)F
